The source of these data is patent US9655902B2, “Guanidine derivatives for the treatment of hepatitis C” (priority 2013, dated 2017).

The structures appear in SMILES notation. Where two headings read alike, the source gives them in different places.

The test system of this assay is HCV pseudoparticles (genotype 1a HCV E1 and E2 envelope, H77C isolate). Description: HCV pseudoparticle infection assay (luciferase reporter, Huh7 cells). Type of assay: cell-based, HCV genotype 1a. The conditions noted are these: Hepatitis C virus, Huh-7, 48 h, read-out: EC50 (1a, nM), genotype 1a HCV pseudoparticles, Huh7 cells, luciferase 2 days after infection.

In the case of `N=C(N)N1CCCN(C(=O)c2ccc(Nc3nc(NC4(c5ccc(Cl)cc5)CC4)nc(OCC(F)(F)F)n3)cc2)CC1` [Compound 1001, 4-(4-(4-(1-(4-chlorophenyl)cyclopropylamino)-6-(2,2,2-trifluoroethoxy)-1,3,5-triazin-2-ylamino)benzoyl)-1,4-diazepane-1-carboximidamide], the EC50 (usually the concentration that produces a half-maximal response) (class symbol) lay in the range of 0.01 to 10 nM.

With `N=C(N)NCCC[C@@H](NC(=O)c1ccc(Nc2nc(NC3(c4ccc(Cl)cc4)CC3)nc(OCC(F)(F)F)n2)cc1)C(=O)O` [Compound 1002, (R)-2-(4-(4-(1-(4-chlorophenyl)cyclopropylamino)-6-(2,2,2-trifluoroethoxy)-1,3,5-triazin-2-ylamino)benzamido)-5-guanidinopentanoic acid], the EC50 (class symbol) fell in the range of 0.01 to 10 nM. `N=C(N)NCCC[C@H](NC(=O)c1ccc(Nc2nc(NC3(c4ccc(Cl)cc4)CC3)nc(OCC(F)(F)F)n2)cc1)C(=O)O` [Compound 1003, (S)-2-(4-(4-(1-(4-chlorophenyl)cyclopropylamino)-6-(2,2,2-trifluoroethoxy)-1,3,5-triazin-2-ylamino)benzamido)-5-guanidinopentanoic acid]: the EC50 runs as follows: (class symbol) 0.01 to 10 nM; (numeric value) 0.711 nM. Turning to `N=C(N)N1CCCN(C(=O)c2ccc(Nc3nc(NCc4ccc(Cl)cc4)nc(OCC(F)(F)F)n3)cc2)CC1` [Compound 1004, 4-(4-(4-(4-chlorobenzylamino)-6-(2,2,2-trifluoroethoxy)-1,3,5-triazin-2-ylamino)benzoyl)-1,4-diazepane-1-carboximidamide], the EC50 (class symbol) was in the range of 10 to 1000 nM. `N=C(N)NCCCCNC(=O)c1ccc(Nc2nc(NCc3ccc(Cl)cc3)nc(OCC(F)(F)F)n2)cc1` [Compound 1005, 4-(4-(4-chlorobenzylamino)-6-(2,2,2-trifluoroethoxy)-1,3,5-triazin-2-ylamino)-N-(4-guanidinobutyl)benzamide]: the EC50 is 10 to 1000 nM (class symbol) and 29.5 nM (numeric value).

Regarding `N=C(N)NCCC[C@@H](NC(=O)c1ccc(Nc2nc(NCc3ccc(Cl)cc3)nc(OCC(F)(F)F)n2)cc1)C(=O)O` [Compound 1006, (R)-2-(4-(4-(4-chlorobenzylamino)-6-(2,2,2-trifluoroethoxy)-1,3,5-triazin-2-ylamino)benzamido)-5-guanidinopentanoic acid], for the setting “class symbol”, the EC50 was 10 to 1000 nM.

As for `N=C(N)NCCC[C@H](NC(=O)c1ccc(Nc2nc(NCc3ccc(Cl)cc3)nc(OCC(F)(F)F)n2)cc1)C(=O)O` [Compound 1007, (S)-2-(4-(4-(4-chlorobenzylamino)-6-(2,2,2-trifluoroethoxy)-1,3,5-triazin-2-ylamino)benzamido)-5-guanidinopentanoic acid], where the note is “class symbol”, the concentration for a half-maximal effect (EC50) is 10 to 1000 nM.

Consider `NC(=O)/N=C(\NC1CCCC1)N1CCN(C(=O)c2ccc(Nc3nc(NC4(c5ccc(Cl)cc5)CC4)nc(OCC(F)(F)F)n3)cc2)CC1` [Compound 1008, N′-carbamoyl-4-(4-(4-(1-(4-chlorophenyl)cyclopropylamino)-6-(2,2,2-trifluoroethoxy)-1,3,5-triazin-2-ylamino)benzoyl)-N-cyclopentylpiperazine-1-carboximidamide], for which the EC50 (class symbol) lay in the range of 0.01 to 10 nM. Take `N#C/N=C(\NC1CCCC1)N1CCN(C(=O)c2ccc(Nc3nc(NC4(c5ccc(Cl)cc5)CC4)nc(OCC(F)(F)F)n3)cc2)CC1` [Compound 1009, 4-(4-(4-(1-(4-chlorophenyl)cyclopropylamino)-6-(2,2,2-trifluoroethoxy)-1,3,5-triazin-2-ylamino)benzoyl)-N′-cyano-N-cyclopentylpiperazine-1-carboximidamide]: the EC50 was 0.01 to 10 nM (class symbol) and 3.57 nM (numeric value). On to `NC(=O)/N=C(\N1CCC1)N1CCN(C(=O)c2ccc(Nc3nc(NC4(c5ccc(Cl)cc5)CC4)nc(OCC(F)(F)F)n3)cc2)CC1` [Compound 1010, 1-(azetidin-1-yl(4-(4-(4-(1-(4-chlorophenyl)cyclopropylamino)-6-(2,2,2-trifluoroethoxy)-1,3,5-triazin-2-ylamino)benzoyl)piperazin-1-yl)methylene)urea], for which, where the note is “class symbol”, the EC50 was 0.01 to 10 nM. Same read-out and setting: for `N#C/N=C(\N1CCC1)N1CCN(C(=O)c2ccc(Nc3nc(NC4(c5ccc(Cl)cc5)CC4)nc(OCC(F)(F)F)n3)cc2)CC1` [Compound 1011, N-(azetidin-1-yl(4-(4-(4-(1-(4-chlorophenyl)cyclopropylamino)-6-(2,2,2-trifluoroethoxy)-1,3,5-triazin-2-ylamino)benzoyl)piperazin-1-yl)methylene)cyanamide] the value was 0.01 to 10 nM; for `NC(=O)/N=C(\N1CCCCC1)N1CCN(C(=O)c2ccc(Nc3nc(NC4(c5ccc(Cl)cc5)CC4)nc(OCC(F)(F)F)n3)cc2)CC1` [Compound 1012, 1-((4-(4-(4-(1-(4-chlorophenyl)cyclopropylamino)-6-(2,2,2-trifluoroethoxy)-1,3,5-triazin-2-ylamino)benzoyl)piperazin-1-yl)(piperidin-1-yl)methylene)urea], 0.01 to 10 nM; for `N#C/N=C(\N1CCCCC1)N1CCN(C(=O)c2ccc(Nc3nc(NC4(c5ccc(Cl)cc5)CC4)nc(OCC(F)(F)F)n3)cc2)CC1` [Compound 1013, N-((4-(4-(4-(1-(4-chlorophenyl)cyclopropylamino)-6-(2,2,2-trifluoroethoxy)-1,3,5-triazin-2-ylamino)benzoyl)piperazin-1-yl)(piperidin-1-yl)methylene)cyanamide], 0.01 to 10 nM.

`N=C1NCCN1C(=O)c1ccc(Nc2nc(NC3(c4ccc(Cl)cc4)CC3)nc(OCC(F)(F)F)n2)cc1` [Compound 1014, (4-(4-(1-(4-chlorophenyl)cyclopropylamino)-6-(2,2,2-trifluoroethoxy)-1,3,5-triazin-2-ylamino)phenyl)(2-iminoimidazolidin-1-yl)methanone]: the EC50 is, setting by setting: (class symbol) 0.01 to 10 nM; (numeric value) 3.01 nM. On to `N=C(N)NC[C@H](NC(=O)c1ccc(Nc2nc(NC3(c4ccc(Cl)cc4)CC3)nc(OCC(F)(F)F)n2)cc1)C(=O)O` [Compound 1015, (S)-2-(4-(4-(1-(4-chlorophenyl)cyclopropylamino)-6-(2,2,2-trifluoroethoxy)-1,3,5-triazin-2-ylamino)benzamido)-3-guanidinopropanoic acid], for which, under “class symbol”, the EC50 is 0.01 to 10 nM. For `N=C(N)NCCC[C@H](NC(=O)c1ccc(Nc2nc(NC3(c4ccc(Cl)cc4)CC3)nc(OCC(F)(F)F)n2)cc1)C(N)=O` [Compound 1016, (S)—N-(1-amino-5-guanidino-1-oxopentan-2-yl)-4-(4-(1-(4-chlorophenyl)cyclopropylamino)-6-(2,2,2-trifluoroethoxy)-1,3,5-triazin-2-ylamino)benzamide], the EC50 reads like this: (class symbol) 0.01 to 10 nM; (numeric value) 0.352 nM.

Turning to `N=C(N)N1CCCN(C(=O)c2ccc(Nc3nc(NCc4ccc(Cl)cc4)nc(OCc4ccccc4)n3)cc2)CC1` [Compound 1017], the EC50 (class symbol) was 10 to 1000 nM.

In the case of `N=C(N)N1CCCN(C(=O)c2cccc(Nc3nc(NCc4ccc(Cl)cc4)nc(OCc4ccccc4)n3)c2)CC1` [Compound 1018], for the setting “class symbol”, the EC50 lay in the range of 10 to 1000 nM. In the case of `N=C(N)NCCC[C@H](NC(=O)c1ccc(Nc2nc(NCc3ccc(Cl)cc3)nc(OCc3ccccc3)n2)cc1)C(=O)N[C@@H](CCC(N)=O)C(=O)O` [Compound 1019], the EC50 (class symbol) was in the range of 10 to 1000 nM. Take `N=C(N)NNC(=O)c1ccc(Nc2nc(NCc3ccc(Cl)cc3)nc(OCc3ccccc3)n2)cc1` [Compound 1020]: the EC50 is 10 to 1000 nM (class symbol) and 175 nM (numeric value). With `N=C(N)NNC(=O)c1cccc(Nc2nc(NCc3ccc(Cl)cc3)nc(OCc3ccccc3)n2)c1` [Compound 1021], the concentration for a half-maximal effect (EC50) (class symbol) is above 1000 nM. As for `N=C(N)NS(=O)(=O)c1ccc(NC(=O)c2ccc(Nc3nc(NCc4ccc(Cl)cc4)nc(OCc4ccccc4)n3)cc2)cc1` [Compound 1022], the EC50 was 10 to 1000 nM (class symbol) and 62.5 nM (numeric value). For the compound `N=C(N)NS(=O)(=O)c1ccc(NC(=O)c2cccc(Nc3nc(NCc4ccc(Cl)cc4)nc(OCc4ccccc4)n3)c2)cc1` [Compound 1023], the EC50 (class symbol) fell in the range of 10 to 1000 nM. Still for that read-out and setting: the value for `N=C(N)NCCCCNC(=O)c1ccc(Nc2nc(NCc3ccc(Cl)cc3)nc(OCc3ccccc3)n2)cc1` [Compound 1024] was 10 to 1000 nM. In the case of `N=C(N)NCCCCNC(=O)c1cccc(Nc2nc(NCc3ccc(Cl)cc3)nc(OCc3ccccc3)n2)c1` [Compound 1025], the EC50 by setting is: (class symbol) above 1000 nM; (numeric value) 4480 nM. For the compound `N=C(N)N1CCN(C(=O)c2ccc(Nc3nc(NCc4ccc(Cl)cc4)nc(OCc4ccccc4)n3)cc2)CC1` [Compound 1026], under “class symbol”, the EC50 fell in the range of 10 to 1000 nM. The same measure, in the same setting: the value for `N=C(N)N1CCN(C(=O)c2cccc(Nc3nc(NCc4ccc(Cl)cc4)nc(OCc4ccccc4)n3)c2)CC1` [Compound 1027] was 10 to 1000 nM; that for `[2H]C([2H])(Oc1nc(Nc2ccc(C(=O)N[C@@H](CCCNC(=N)N)C(N)=O)cc2)nc(NC2(c3ccc(Cl)cc3)CC2)n1)C(F)(F)F` [Compound 1028] was 0.01 to 10 nM; that for `[2H]C([2H])(Oc1nc(Nc2ccc(C(=O)N[C@H](CCCNC(=N)N)C(=O)N[C@@H](Cc3ccccc3)C(=O)O)cc2)nc(NC2(c3ccc(Cl)cc3)CC2)n1)C(F)(F)F` [Compound 1029] was 0.01 to 10 nM. Still for that read-out and setting: for `[2H]C([2H])(Oc1nc(Nc2ccc(C(=O)N[C@@H](CCCNC(=N)N)C(=O)NCC(N)=O)cc2)nc(NC2(c3ccc(Cl)cc3)CC2)n1)C(F)(F)F` [Compound 1030] the value was 0.01 to 10 nM.

Consider `[2H]C([2H])(Oc1nc(Nc2ccc(C(=O)N[C@@H](CCCNC(=N)N)C(=O)N[C@@H](CC(N)=O)C(N)=O)cc2)nc(NC2(c3ccc(Cl)cc3)CC2)n1)C(F)(F)F` [Compound 1031], for which, for the setting “class symbol”, the half-maximal effective concentration (EC50) is 0.01 to 10 nM.
